Here are results for 17 substances from US6919441B2, “Polyamide-oligonucleotide derivatives, their preparation and use” (Aventis Pharma Deutschland GmbH, priority 1995, dated 2005).

One data set deals with complementary DNA. The data set is described as follows: Melting temperature (TM) with complementary DNA. The following applies: 10 mM HEPES, 140 mM NaCl, pH 7.5. In kind it is binding. The protocol: (§1) The melting temperatures are determined using an HP 8452A diode array spectrophotometer, an HP 89090A Peltier element and the HP temperature control software Rev.B5.1 (from Hewlett Packard). Measurements are carried out in 0.5° C./min steps in 10 mM HEPES and 140 mM NaCl (pH 7.5) as buffer. The oligomer concentration is 0.5 to 1 OD260 per ml.

Data set [1] concerns complementary RNA (T = U). In words: Melting temperature (TM) with complementary RNA. In kind it is binding. The following applies: ap; 3′-TGT AGT ACC AGC-5′ (T = U); 10 mM HEPES, 140 mM NaCl, pH 7.5. The protocol: as §1
In data set [2] the test system is Ha-ras protein expression. The data set is described as follows: Anti-Ha-ras activity, Western blot in RS485 cells. In kind it is cell-based. The procedure: RS485 cells (40-60% confluency) were either treated with the PNS_DNA chimera alone or transfected with PNA-DNA chimera using Lipofectin™ Reagent and the protocol from Life Technologies. Briefly, varying concentrations of oligomers were diluted in 100 μl of serum-free medium. In a separate tube Lipofectin was added to serum-free medium at a concentration of 7 μl/100 μl. After 30 minutes at room temperature, 100 μl of Lipofectin solution was mixed with 100 μl of ODN solution, incubated for an additional 15 minutes at room temperature, and mixed with 800 μl of serum-free medium. Cells were washed two times with serum-free medium, and the total solution (1 ml) containing the ODN-Lipofectin complex was overlayed onto the cells. After 6 hours, 1 ml of fresh medium containing 8 mM L-glutamine and 20% calf serum was added, and the cells were incubated for an additional 38 hours. Treated cells were washed with PBS, harvested with trypsin, and cellular proteins were extracted. The ras Protein was then determined by Western Blot Analysis. Total cellular protein was prepared by lysing cells in RIPA buffer with freshly added inhibitors (PMSF, aprotinin, sodium orthovanadate) and homogenizing through 21-gauge needles according to the protocol provided by Santa Cruz Biotechnology, Inc. The extracts were cleaned by centrifugation at 15,000 xg for 20 min at 4° C. and the protein concentration of the supernatant was determined. 40 μg of protein was size fractionated in 5-12.5% PAGE and electroblotted onto a nitrocellulose membrane. The membrane was incubated with primary antibody against Ha-Ras (C-20) (Santa Cruz Biotechnology, Inc.) and then with Horseradish Peroxidase-conjugated goat anti-rabbit immunoglobulin G. The ECL chemo-luminescent Western system (Amersham, Arlington Heights, Ill.) was used to detect secondary probes.

In data set [3] the test system is VEGF (vascular endothelial growth factor). In words: Inhibition of VEGF expression (ELISA of culture supernatants). In kind it is cell-based, human. The protocol:
Cell Culture: Normal human epidermal keratinocytes (NHEK cells) were grown in KGM growth medium (Clonetics).
Both human estrogen responsive breast tumor (MCF-7) cells and human estrogen-independent breast tumor (MDA-MB-231) cells were grown in IMEM (Biofluids) supplemented with 10% FBS (Gibco-BRL) and 1:100 antibiotic-antimycotic (Gibco-BRL).
Cellular assays: NHEK cells were seeded at a density of ˜50,000 cells per well in 48-well plates in 0.5 ml of KGM growth medium (Clonetics) and incubated in humidified incubators at 37° C. The following day, the growth medium was replaced with fresh medium containing the PNA-DNA chimera alone or as mixture with Cellfectin, a cationic lipid uptake enhancer for nucleic acids (Life Technologies). Incubation of cells with the oligomer formulation was followed by a wash after 4 hours and cells were returned to fresh unsupplemented medium. Sixteen and/or 40 hr post-stimulation the culture supernatants were removed and used for ELISA, or saved at −80° C. for future analysis. To assay MCF-7 or MDA-MB-231 cells. MCF-7/MDA-MB-231 cells were seeded at a density of ˜100,000 cells per well plates in 0.5 ml of IMEM and incubated under standard conditions. […] VEGF protein levels in the supernatant were determined using a commercially available ELISA kit (R&D Systems).
(In general: ELISA stands for enzyme-linked immunosorbent assay.)

Data set [4] has as its system DNA double strand (homopurine motif). The data set is described as follows: Binding as triplex-forming oligonucleotide to double-stranded DNA.
The nature of data set [5]: Stability of the oligomer in medium containing cells. Type of data set: in vitro ADME. The protocol: Vero cells are incubated in DMEM, 5% FCS, in 96-well microtiter plates at 37° C. for 24 hours. After removal of the medium, the cells are washed twice with serum-free DMEM. The radioactively labeled oligomer (10^6 cpm) is diluted with unlabeled oligomer to a concentration of 10 μM in serum, and the cells are incubated at 37° C. therewith. 150 μl portions are removed after 1, 7 and 24 hours (called “supernatant 1”). The cells in the wells of the microtiter plates are washed 7 times with 300 μl of fresh medium, and the combined washing media (called “supernatant 2”) are measured in a scintillation counter. Then 100 μl of trypsin solution are added, 30 seconds are allowed to elapse, and the supernatant is aspirated off. The cells are detached from the plate by incubating at 37° C. for 3 min. The detached cells are transferred into 1.5 ml Eppendorf tubes and centrifuged at 2,000 rpm for 6 minutes (“supernatant 3”). Supernatants 1 (5 μl), 2 and […] (0.5 ml) are each measured separately in a scintillation counter. From this is calculated the uptake of oligomer in pmol per 100,000 cells, with supernatant 3 representing the cell-bound oligomer fraction and the total of supernatants 1 and 2 representing the non-cell-bound oligomer fraction.
Supernatant 1 (10 μl) is mixed with 5 μl of 80% formamide (with Xylenecyanol and bromphenolblue), heated to 95° C. […]

Data set [6] addresses DNA polymerase (Klenow fragment) (Escherichia coli, UniProt P00582). The data set is described as follows: DNA polymerase reaction (primer function). The following applies: 22° C. and 37° C., 10% polyacrylamide gel. In kind it is biochemical. The source says:
The following 81-mer oligodeoxynucleotide is used as template for the DNA polymerase reaction: • 5′-GCCCCAGGGAGAAGGCAACTGGACCGAAGGCGCTTGTGGAGAAGGAGTTCATAGCTGGGCTCCCTATAGTGAGTCGTATTA-3′(SEQ ID NO:50)
The sequence of the PNA/DNA primer is: • H-taa tac gac tca cta (5NH-T)-OH 3′(SEQ ID NO:62).
A corresponding oligodeoxynucleotide of the sequence 5′-TAA TAC GAC TCA CTA TAG-3′ (SEQ ID NO:51) is used as control primer.
The primer (0.15 nmol) and the template (0.15 nmol) in 5 μl of 10×PCR buffer ([…], 100 mM tris-HCl, pH 9, 1% Triton X-100, 15 MM MgCl2) are diluted with 35 μl of water and hybridized by heating to 95° C. and cooling. Then 10 μl of 2 mM dNTP mixture (nucleoside 5′-triphosphates) and 3 μl of DNA polymerase (Klenow fragment) are added, and the mixture is incubated at 22° C. and 37° C. for 0.5 hour each. The reaction solution is then analyzed on a 10% polyacrylamide gel (with 1% bis). pBR322/HaeIII digestion is loaded as marker. […] In both cases the double strand migrates […] than the template single strand in the gel electrophoresis.

For another data set, the system named is c-Fos protein expression. The data set is described as follows: Inhibition of c-Fos protein expression in the rat (spinal cord superfusion). Type of data set: in vivo, Sprague-Dawley rat. The following applies: 75 μM, 6 hours, heat stimulation. The source says: The determination takes place as described (Sandkühler et al. (1991) in: Proceedings of the VIth World Congress on Pain, Charlton and Woolf, Editors; Elsevier, Amsterdam; pages 313-318) by superfusion of the spinal cord. After laminectomy of a barbiturate-anesthetized Sprague-Dawley rat, a two-chamber container is formed from silicone to receive the antisense oligomer. One chamber is filled with the antisense PNA/DNA derivative, while the other chamber is filled with the control oligomer (concentration of each 75 μM). The superfusate is exchanged in each case after one hour. After superfusion for 6 hours, c-fos expression is stimulated by heat treatment (52° C.) of the rear legs.

The test system of another data set is COS cells. The data set is described as follows: Cellular uptake by fluorescence labeling (fluorescence microscopy). Type of data set: cell-based. To be noted: 0.1 mM oligomer. The protocol:
COS cells are allowed to grow to confluence in Dulbecco's MEM supplemented with 10% FCS in 5 cm Petri dishes. The cells are washed twice with serum-free DMEM. A sterile needle is used to scratch an area of about 1 cm^2 in the middle of the Petri dish. The PNA/DNA oligomer solution (0.1 mM) to be investigated is applied to this area. Incubation is carried out at 37° C. under a CO2 atmosphere. The cells are investigated by fluorescence microscopy after 2, 4 and 16 hours. For this, the cells are washed four times with serum-free DMEM, covered with a glass slide and assessed under a fluorescence microscope or by phase contrast. A fluorescence-labeled PNA (without DNA part) F-(but)-tttt ttt-hex was investigated as comparison for the PNA/DNA hybrid molecules. After the cells had been incubated with this PNA for two hours, >90% of the cells show signs of pronounced morphological changes and cell death. […] The plasma membrane, the cytosol and the nucleus show no uptake of PNA. […] The situation is different with the DNA/PNA oligomers according to the invention. After incubation of the cells with the DNA/PNA oligomers for only two hours the cells show punctiform intracellular distribution of the PNA/DNA oligomers. The cells suffer no cell death even after prolonged incubation.

Data set [7] has as its target RNase L (cellular endoribonuclease L) (Homo sapiens, UniProt Q05823). To be noted: HeLa cell extract, 37° C.
Description: An HeLa cell extract was prepared in order to stimulate the activity of cellular endoribonuclease L by the 2′,5′-tetraadenylate-PNA/DNA conjugates.
For investigation of this extract for endonuclease L, initially 0.3 OD of the RNA target sequence is heated with the particular PNA/DNA oligomers at 80° C. for 5 minutes and subsequently cooled to 37° C. for the hybridization. The duplex is mixed with 20 μl of the extract, 1.2 μl of glycerol and RNase L buffer and incubated at 37° C. The total volume is then 70 μl. For the kinetic investigations, samples are removed by pipette at the times of 0, 20 and 60 minutes and heated at 95° C. for 5 minutes to denature the enzymes. The samples are lyophilized in a Speedvac and analyzed by gel electrophoresis.
Where [8] appears, read: antiparallel, 3′-TAG CAG CAT AAT CAG-5′.
Where [9] appears, read: parallel, 5′-TAG CAG CAT AAT CAG-3′.

In the oligonucleotide strings, read from the 5' end, every base follows the letter of its sugar. An asterisk marks phosphorothioate; unmarked linkages are phosphodiester. Other units and linkages are bracketed, terminal groups are in braces. A string of capitals states the bases alone. d = 2'-deoxy (DNA)

Chain of DNA polymerase (Klenow fragment) (P00582 324-928): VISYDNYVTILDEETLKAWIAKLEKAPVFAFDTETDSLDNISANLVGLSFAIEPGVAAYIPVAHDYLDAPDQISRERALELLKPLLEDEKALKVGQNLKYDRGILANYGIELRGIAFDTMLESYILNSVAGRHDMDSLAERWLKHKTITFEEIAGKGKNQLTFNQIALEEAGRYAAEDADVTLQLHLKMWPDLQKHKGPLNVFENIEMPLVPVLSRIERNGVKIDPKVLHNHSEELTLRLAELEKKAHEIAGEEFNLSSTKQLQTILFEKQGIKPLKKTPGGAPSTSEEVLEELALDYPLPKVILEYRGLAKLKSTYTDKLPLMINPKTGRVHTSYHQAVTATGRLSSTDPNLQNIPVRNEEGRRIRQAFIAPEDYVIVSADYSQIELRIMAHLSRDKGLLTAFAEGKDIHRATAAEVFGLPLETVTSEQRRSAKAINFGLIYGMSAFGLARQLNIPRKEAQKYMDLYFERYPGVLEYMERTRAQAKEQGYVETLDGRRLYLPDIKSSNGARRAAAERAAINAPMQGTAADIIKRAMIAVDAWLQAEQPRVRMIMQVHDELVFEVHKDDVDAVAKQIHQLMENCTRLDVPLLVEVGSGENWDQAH
Chain of RNase L (cellular endoribonuclease L) (Q05823 whole entry): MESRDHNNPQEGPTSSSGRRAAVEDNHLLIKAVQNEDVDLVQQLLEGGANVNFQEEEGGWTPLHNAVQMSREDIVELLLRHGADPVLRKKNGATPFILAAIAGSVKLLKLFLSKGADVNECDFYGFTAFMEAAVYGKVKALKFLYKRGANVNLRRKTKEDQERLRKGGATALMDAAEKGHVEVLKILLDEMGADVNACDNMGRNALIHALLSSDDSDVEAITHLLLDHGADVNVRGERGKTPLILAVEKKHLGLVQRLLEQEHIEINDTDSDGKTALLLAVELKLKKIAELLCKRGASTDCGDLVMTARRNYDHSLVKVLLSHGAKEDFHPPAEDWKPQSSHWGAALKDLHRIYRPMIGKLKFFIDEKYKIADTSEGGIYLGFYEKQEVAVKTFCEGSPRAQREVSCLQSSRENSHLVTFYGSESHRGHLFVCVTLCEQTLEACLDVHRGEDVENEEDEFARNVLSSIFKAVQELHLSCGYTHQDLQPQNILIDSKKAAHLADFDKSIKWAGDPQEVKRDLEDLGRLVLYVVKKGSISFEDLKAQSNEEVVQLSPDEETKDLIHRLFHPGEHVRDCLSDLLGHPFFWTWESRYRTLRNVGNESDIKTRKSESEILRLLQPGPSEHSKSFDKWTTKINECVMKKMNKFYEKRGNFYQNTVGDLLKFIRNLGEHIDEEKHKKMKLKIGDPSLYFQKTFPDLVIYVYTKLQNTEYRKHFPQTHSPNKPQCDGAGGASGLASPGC

For “5′-ACA TCA TGG TCG-3′ [5′-ACA TCA TGG TCG-3′ DNA] (ACATCATGGTCG; unmodified DNA) [natural DNA oligonucleotide, reference compound]”, the “TM with DNA” value in the data set with complementary DNA (ap, 3′-TGT AGT ACC AGC-5′) is 50.7° ° C. For the same substance, the “TM with RNA (T = U)” value in data set [1] was 48.6° ° C.
In the case of “5′-ACA TCA TGG TCG-3′ [5′-ACA TCA TGG TCG-3′ S-DNA] (dA*dC*dA*dT*dC*dA*dT*dG*dG*dT*dC*dG) [reference compound]”, the “TM with DNA” value in the data set on complementary DNA (ap, 3′-TGT AGT ACC AGC-5′) was 46.7° ° C. The “TM with RNA (T = U)” value in [1] was determined as 43.8° ° C.
Take “5′-ASTSGS-(Oeg(a))-cgg aata-hex [Example 53]”: the “inhibition of ha-ras expression (control oligonucleotides)” value in data set [2] is reported as “did not inhibit”.
Turning to “5′-ATC GTC GTA TT-(Oeg(t))-agtc-hex [Example 18]”, the “TM with DNA” value is “TM = 51.5 °C” with complementary DNA (setting [8]) and “TM < 20 °C” with complementary DNA (setting [9]).
Regarding “5′-ATC GTC GTA TT-(but)-agtc-hex [Example 17]”, the “TM with DNA” value is “TM = 51.0 °C” in the data set with complementary DNA (setting [8]) and “TM < 20 °C” in the data set on complementary DNA (setting [9]).
For “5′-ATC GTC GTA TTA GTC-3′ (ATCGTCGTATTAGTC; DNA, backbone not given here) [natural DNA oligonucleotide (DNA · DNA duplex), reference compound]”, in the data set with complementary DNA (setting [8]), the “TM with DNA” value was “TM = 50.5 °C”.
Consider “5′-ATG-(Oeg(a))-cgg aata-hex [Example 52]”, for which, in [2], the “inhibition of ha-ras expression (control oligonucleotides)” value is reported as “did not inhibit”.
For “5′-CSUSGAUSAG-(Oeg(a))-catccatg-hex [Example 54]”, the “highest inhibition of VEGF expression” value in data set [3] (1 μM, presence of Cellfectin (10 μg/ml)) is 43%. For the same substance, the “inhibition of VEGF expression” value in data set [3] (0.1 to 0.4 μM, absence of Cellfectin) was 10-18%.
As for “5′-GG GGG GGG (Oeg(t)) ttt ttt ttt-hex [Example 39]”, in data set [4], the “binding as triplex-forming oligonucleotide to DNA double strand” value was “high affinity”.
For “5′-GGG GGG GGG (but) ttt ttt-hex [Example 28]”, the “binding as triplex-forming oligonucleotide to DNA double strand” value in [4] is given as “high affinity”.
“5′-TSASTS-(Oeg(t))-ccgtcat-hex [Example 51]”: the “inhibition of ha-ras protein expression” value in data set [2] (1 μM, in the presence of lipofectin) is listed as “almost complete inhibition”.
With “5′-TTT TTT TTT (but) ttt ttt-hex [Example 26]”, in data set [5] (after an incubation time of 24 hours in medium containing cells), the stable oligomer stood at 69%.
Regarding “(5′)-(Acetyl)-taa tac gac tca cta (eae(t) A-3′ [Example 65]”, the “DNA polymerase reaction product with primer on 81-mer template (gel)” value in data set [6] was “dNTP are polymerized”.
As usually defined, the half-life is the time in which the quantity being followed falls by half. Read a low half-life as fast loss. Take “A CAT CA (Oeg(t)) ggt cg-hex [Example 31]”: in data set [5] (medium containing cells), the half-life was found to be 32 h. In the data set on c-Fos protein expression, the “inhibition of c-fos expression compared with corresponding DNA oligonucleotide and PNA oligomer” value is “greater inhibition”.
Take F-(but)-tttt ttt-hex: in the data set with COS cells (a further two hours or prolonged incubation), the “cell death on further/prolonged incubation” value is recorded as “all the cells have died”. The “cells showing pronounced morphological changes and cell death” value in the data set on COS cells (incubated two hours) is given as above 90%. Moreover, the “intracellular uptake (fluorescence microscopy)” value in the data set on COS cells (two hours) was “no uptake”.
Regarding “PS-rA(2′5′)rA(2′5′)rA(2′5′)rA-spacer-(Oeg(t)tc ctc ctg cgg-hex [Example 37]”, the “stimulation of RNase L” value in data set [7] was “stimulates RNase L”.
“taa tac gac tca cta (5′HN-T) (TAATACGACTCACTA; listed as DNA, chemistry not fully specified) [Example 36, 15 PNA units and one nucleoside unit, primer for DNA polymerase]”: the “DNA polymerase reaction product with primer on 81-mer template (gel)” value in data set [6] is listed as “migrates somewhat more quickly”.
